In US10150737B2, “Compounds for controlling arthropods” (priority 2013, dated 2018):

Experiments:
[1] = logP determination by HPLC on a reversed-phase column (C18); assay type: physicochemical; settings: for logP^a): HPLC-MS method a); for log P: HPLC-MS
[2] = tested on: Boophilus microplus; assay: Boophilus microplus - injection test; assay type: in vivo; settings: application rate 20 μg/animal, injection into engorged adult female ticks, after 7 days
How it was run: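 Active ingredient in DMSO, 1 μl injected into the abdomen of 5 engorged adult female ticks, then held in a climate-controlled room. Efficacy scored after 7 days from laying of fertile eggs, with non-fertile-looking eggs kept about 42 days for larval hatch; 100% means no fertile eggs.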

[3] = tested on: Ctenocephalides felis; assay: Ctenocephalides felis - oral test; assay type: in vivo; settings: application rate 100 ppm in citrated cattle blood; after 2 days
Procedure: (§1) Solvent: dimethyl sulphoxide
For the purpose of producing an appropriate active ingredient formulation, 10 mg of active ingredient are mixed with 0.5 ml of dimethyl sulphoxide. Dilution with citrated cattle blood gives the desired concentration.
About 20 unfed adult cat fleas (Ctenocephalides felis) are placed into a chamber which is closed at the top and bottom with gauze. A metal cylinder whose bottom end is closed with parafilm is placed onto the chamber. The cylinder contains the blood/active ingredient preparation, which can be imbibed by the fleas through the parafilm membrane.
After 2 days, the kill in % is determined. 100% means that all of the fleas have been killed; 0% means that none of the fleas have been killed.

[4] = tested on: Lucilia cuprina; assay: Lucilia cuprina test; assay type: in vivo; settings: application rate 100 ppm; L1 larvae; after 2 days
Procedure: as §1
(§2) To produce an appropriate active ingredient formulation, 10 mg of active ingredient are mixed with 0.5 ml of dimethyl sulphoxide, and the concentrate is diluted with water to the desired concentration.
About 20 L1 larvae of the Australian sheep blowfly (Lucilia cuprina) are transferred into a test vessel containing minced horsemeat and the active ingredient preparation of the desired concentration.
After 2 days, the kill in % is determined. 100% means that all the larvae have been killed; 0% means that none of the larvae have been killed.

[5] = tested on: Musca domestica; assay: Musca domestica test; assay type: in vivo; settings: adult houseflies, after 2 days
Procedure: as §1, §2
Vessels containing a sponge treated with sugar solution and the active ingredient formulation of the desired concentration are populated with 10 adult houseflies (Musca domestica).
After 2 days, the kill in % is determined. 100% means that all of the flies have been killed; 0% means that none of the flies have been killed.

[6] = tested on: Phaedon cochleariae; assay: Phaedon cochleariae - spray test; assay type: in vivo; settings: larvae on Chinese cabbage leaf discs, after 7 days
How it was run: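 Chinese cabbage leaf discs sprayed with compound formulated in acetone/DMF and water containing 1000 ppm emulsifier; once dry, infested with mustard beetle larvae. Efficacy (% larvae killed) scored after 7 days.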

[7] = tested on: Spodoptera frugiperda; assay: Spodoptera frugiperda - spray test; assay type: in vivo; settings: caterpillars on maize leaf discs, after 7 days
Procedure: (§3) Solvent: 78.0 parts by weight of acetone and 1.5 parts by weight of dimethylformamide
(§4) Emulsifier: alkylaryl polyglycol ether
(§5) To produce an appropriate active ingredient formulation, 1 part by weight of active ingredient is dissolved using the specified parts by weight of solvent and made up with water containing an emulsifier concentration of 1000 ppm until the desired concentration is attained. To produce further test concentrations, the preparation is diluted with emulsifier-containing water.
Leaf discs of maize (Zea mays) are sprayed with an active ingredient formulation of the desired concentration and, after drying, populated with caterpillars of the armyworm (Spodoptera frugiperda).
After 7 days, efficacy in % is determined. 100% means that all the caterpillars have been killed; 0% means that no caterpillars have been killed.

[8] = tested on: Tetranychus urticae; assay: Tetranychus urticae - spray test, OP-resistant; assay type: in vivo; settings: bean leaf discs, after 6 days
Procedure: as §3, §4, §5
Discs of bean leaves (Phaseolus vulgaris) infested by all stages of the greenhouse red spider mite (Tetranychus urticae) are sprayed with an active ingredient formulation of the desired concentration.
After 6 days, efficacy in % is determined. 100% means that all the spider mites have been killed; 0% means that none of the spider mites have been killed.

[9] = reversed-phase column (C18), Table I-T3

SMILES | logP^a) [1] | logP^a) [1, 9] | efficacy (laying of fertile eggs) [2] [%] | efficacy (kill) [3] [%] | efficacy (kill) [4] [%] | efficacy (kill) ([5]; application rate 100 ppm) [%] | efficacy ([6]; application rate 500 g/ha) [%] | efficacy ([7]; application rate 500 g/ha) [%] | pest or weed control at 0.02 mg ([2]; Rhipicephalus microplus, 168 h, read-out: efficacy (laying of fertile eggs)) [%] | logP^a) ([1]; reversed-phase column (C18)) | log P [1, 9] | efficacy ([6]; application rate 100 g/ha) [%] | efficacy ([7]; application rate 100 g/ha) [%] | efficacy ([8]; application rate 100 g/ha) [%] | efficacy ([8]; application rate 500 g/ha) [%] | efficacy (kill) ([5]; application rate 4 ppm) [%]
CCc1cc(C(F)(C(F)(F)F)C(F)(F)F)ccc1-n1cc(-c2cncc(C(=O)NC3CC3)c2)cn1 [I-T3-79] | 3.3 | 3.3 | 100 | 95 | 80 | 80 | 100 | 100 | – | – | – | – | – | – | – | –
Cc1cc(C(F)(C(F)(F)F)C(F)(F)F)cc(C)c1-n1cc(-c2ncc(Cl)c(C(=O)NC3CC3)n2)cn1 [I-T3-121, 5-chloro-N-cyclopropyl-2-[1-[2,6-dimethyl-4-[1,2,2,2-tetrafluoro-1-(trifluoromethyl)ethyl]phenyl]pyrazol-4-yl]pyrimidine-4-carboxamide] | – | – | – | – | – | 80 | – | – | 80 | – | – | – | – | – | – | –
N#CC1(NC(=O)c2cc(-c3cnn(-c4ncc(C(F)(F)F)cc4C(F)(F)F)c3)ccc2Cl)CC1 [I-T3-149] | – | – | 100 | 100 | 100 | 100 | – | – | – | 3.5 | 3.5 | 100 | – | – | – | –
CCc1cc(C(F)(F)C(F)(F)F)cc(C)c1-n1cc(-c2ccc(Cl)c(C(=O)NCC(F)(F)F)c2)cn1 [I-T3-82] | 4.0 | 4.0 | 100 | 95 | 100 | – | – | – | – | – | – | 100 | 100 | 100 | – | –
CCc1cc(C(F)(C(F)(F)F)C(F)(F)F)ccc1-n1cc(-c2cncc(C(=O)NC3(C#N)CC3)c2)cn1 [I-T3-78] | 3.2 | 3.8 | 100 | 100 | 100 | – | 100 | 100 | – | – | – | – | – | – | 100 | –
Cc1cc(C(F)(C(F)(F)F)C(F)(F)F)cc(C)c1-n1cc(-c2cccc(C(=O)NC3(C#N)CC3)c2F)cn1 [I-T3-10] | 4.2 | 4.2 | 100 | 100 | 100 | – | 100 | 100 | – | – | – | – | – | – | 100 | –
CCc1cc(C(F)(C(F)(F)F)C(F)(F)F)cc(C)c1-n1cc(-c2cccc(C(=O)NC3CC3)c2F)cn1 [I-T3-70] | 4.3 | 4.7 | 100 | 95 | 100 | – | 100 | 100 | – | – | – | – | – | – | 90 | –
CCc1cc(C(F)(C(F)(F)F)C(F)(F)F)ccc1-n1cc(-c2ccc(Cl)c(C(=O)NC3CSC3)c2)cn1 [I-T3-41] | 4.9 | 4.9 | 100 | 95 | 90 | – | – | – | – | – | – | 100 | 100 | 100 | – | –
CCc1cc(C(F)(C(F)(F)F)C(F)(F)F)cc(C)c1-n1cc(-c2ccc(Cl)c(C(=O)NC3CC3)c2F)cn1 [I-T3-68] | 4.6 | 4.8 | 100 | 100 | 100 | 80 | 100 | 100 | – | – | – | – | – | – | – | –
CCc1cc(C(F)(C(F)(F)F)C(F)(F)F)cc(C)c1-n1cc(-c2ccc(Cl)c(C(=O)NCC(F)(F)F)c2)cn1 [I-T3-45] | 5.0 | 5.0 | 100 | 95 | 100 | – | 100 | 100 | – | – | – | – | – | – | 100 | –
CCc1cc(C(F)(C(F)(F)F)C(F)(F)F)cc(C)c1-n1cc(-c2cccc(C(=O)NC3(C#N)CC3)c2F)cn1 [I-T3-69] | 4.3 | 4.5 | 100 | 100 | 95 | – | 100 | 100 | – | – | – | – | – | – | 100 | –
O=C(NC1CC1)c1cc(-c2cnn(-c3ccc(C(F)(C(F)(F)F)C(F)(F)F)cc3OC(F)(F)F)c2)ccc1Cl [I-T3-35] | 4.7 | 4.7 | 100 | 100 | 100 | – | 100 | – | – | – | – | – | 83 | – | – | 80
Cc1cc(C(F)(C(F)(F)F)C(F)(F)F)cc(C)c1-n1cc(-c2ccc(Cl)c(C(=O)NC3(C(F)(F)F)CC3)c2)cn1 [I-T3-5] | 4.6 | 4.6 | 100 | 100 | 100 | 100 | – | – | – | – | – | 100 | – | – | – | –
COc1ncc(-c2cnn(-c3c(C)cc(C(F)(C(F)(F)F)C(F)(F)F)cc3C)c2)cc1C(=O)N(C)C1CC1 [I-T3-144] | – | – | 100 | 90 | 100 | 100 | – | – | – | 4.4 | 4.4 | 100 | – | – | – | –
CCc1cc(C(F)(C(F)(F)F)C(F)(F)F)cc(C)c1-n1cc(-c2ccc(Cl)c(C(=O)NC3(C#N)CC3)c2F)cn1 [I-T3-66] | 4.6 | 4.6 | 100 | 100 | 100 | 80 | 100 | 100 | – | – | – | – | – | – | – | –
O=C(NC1CC1)c1cc(-c2cnn(-c3ncc(C(F)(F)F)cc3C(F)(F)F)c2)ccc1Cl [I-T3-150] | – | – | 100 | 100 | 100 | 100 | – | – | – | 3.6 | 3.6 | – | – | – | – | –
